The values below come from EP1298214A2, “Plant thioesterases” (Calgene LLC, priority 1990, dated 1991).

Assay type in all cases: biochemical
The test system of experiment [1] is pET3a control E. coli lysate. Kind of experiment: Acyl-ACP hydrolysis by control E. coli lysate (unmodified pET3a). The note with it: 1 hour induction with 1mM IPTG. The method, then:
(§1) To assay for C12 thioesterase activity the following mixture is incubated at 30° for 30 min: "buffer" comprising 7mM KH2PO4-KOH pH 8, 20% v/v glycerol, 1mM dithiothreitol (DTT), 0.1% v/v Triton X100; sample to be tested for activity in the same or similar buffer as the "extraction buffer" described in Example 2; and 5µl of ^14C-radiolabeled lauroyl-ACP substrate for a total volume of 100µl and final lauroyl-ACP concentration of 0.5µM. Lauroyl-ACP substrate is prepared according to the method of Rock et al (Methods in Enzymology (1981) 72:397-403), using ACP prepared from Escherichia coli by the method of Rock and Cronan (Methods in Enzymology (1981) 71:341-351). The laurate is radiolabeled in the carboxylate group at a specific radioactivity of 50-60µCi/µmol.
(§2) The reaction is stopped by adding 0.5ml cold (0°) 10% v/v acetic acid. The fatty acid product of the hydrolytic enzyme action is extracted away from the unhydrolyzed substrate by adding 1ml diethyl ether and mixing vigorously. After settling for a few minutes the upper ether layer is transferred to 5ml scintillation fluid for determination of radioactivity by liquid scintillation spectrometry. Additional ether extractions may be performed to recover remaining traces of the reaction product for more accurate quantitation of the enzyme activity if desired. The amount of ether-extracted radioactivity is a direct measure of C12-preferring acyl-ACP thioesterase activity, provided the amount of enzyme is not sufficient to hydrolyze more than about 25% of the substrate. With greater activity than this the relationship between radioactivity in the ether layer and the quantity of enzyme becomes markedly nonlinear. The enzyme preparation must then be diluted appropriately to bring the activity into the linear range of the assay.
A pET3a vector (Rosenberg, et al., Gene (1987) 56:125-135) is used in an E. coil strain BL21 (PE3) (Studier and Moffat, J. Mol. Biol. (1986) 189:113-130) host for this study. The pET3a vector contains a promoter and 33 bp of the 5' reading frame of bacteriophase T7. T7 polymerase is under the regulatory control of an isopropyl-b-D-thiogalactopyranoside (IPTG)-inducible lac UV5 promoter found in the E. coli BL21 (DE3) strain. Thus, by the addition of IPTG to E. coli BL21 (DE3) transformed with pET3a, the T7 promoter will be activated.
Constructs are prepared containing the truncated cDNA of Fig. 2 fused in reading frame by deletion of the BamHI/EcoRI fragment and replacement of the thioesterase sequence. E. coli are transformed with pET3a constructs containing the thioesterase (pET3a-THI0) and unmodified pET3a as a control. The E. coli are grown at 37°C in liquid medium and expression is induced by the addition of 1mM IPTG. […]

The target in experiment [2] is T1, bay thioesterase enzyme purified from developing seeds (Umbellularia californica, UniProt Q41635).
T1 construct: The cotyledons from such seeds are dissected from the other seed parts and stored frozen at -70°; This comprises the source tissue for enzyme extraction; from tissue; host or cells: immature seed cotyledons of Umbellularia californica
T1 sequence (Q41635 84-382): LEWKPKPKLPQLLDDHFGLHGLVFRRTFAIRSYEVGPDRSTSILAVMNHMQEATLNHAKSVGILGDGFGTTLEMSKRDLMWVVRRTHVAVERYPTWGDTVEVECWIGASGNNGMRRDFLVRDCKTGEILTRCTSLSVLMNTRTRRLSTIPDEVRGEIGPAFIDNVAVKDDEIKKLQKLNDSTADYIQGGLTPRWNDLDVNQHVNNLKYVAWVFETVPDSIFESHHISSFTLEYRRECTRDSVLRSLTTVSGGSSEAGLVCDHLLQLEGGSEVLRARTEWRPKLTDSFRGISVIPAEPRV
Kind of experiment: Substrate analysis of bay thioesterase purified from developing seeds. The note with it: enzyme purified from developing seeds as in Example 2. The method, then:
as §1, §2
The dialyzed material is then applied to a column of immobilized ACP (2.5cm diameter x 10.5cm bed height). This column is manufactured by coupling Escherichia coli ACP to cyanogen bromide-activated Sepharose 4B according to instructions supplied by the manufacturer of this column packing (Pharmacia Inc., Piscataway, NJ). The E. coli ACP is prepared as referenced in Example 1. Before use the column is equilibrated with ACP1 buffer. The dialyzed material from the cation exchange column is applied at 1-1.3ml/min, and fractions of 8ml volume are collected throughout the procedure. Fractions are assayed for C12-preferring acyl-ACP thioesterase activity, and for total protein content using a Cobmassie Blue assay method (Bio-Rad Inc., Richmond, CA, catalog no. 500-0001). A substantial amount of protein washes through the column without binding. Almost all of the C12-preferring acyl-ACP thioesterase activity binds. […]

Experiment [3] deals with control induced E. coli lysate. The experiment in a line: Acyl-ACP hydrolysis by control E. coli lysate (bay thioesterase gene in opposite orientation). The note with it: Dilution 1/4000, one hour induction with 0.1mM IPTG. On the procedure:
as §1, §2
The resulting construct, pCGN3823, and a control Bluescribe construct having the bay thioesterase gene inserted in the opposite orientation are transformed into E. coli. The E. coli cells are grown at 37°C in liquid medium and expression from the lac promoter is induced by addition of IPTG to a final concentration of 0.1mM IPTG. Following one hour of induction, cells are harvested, lysed and assayed as described above for the truncated bay thioesterase.

For the substance 14:0-ACP, the “Hydrolysis Activity (mean cpm in ether extract)” value (shortened to “Hydrolysis Activity”) in experiment [1] worked out at 1271 cpm; in experiment [2] it was 69 cpm; in experiment [3], 0 cpm.

As to 16:0-ACP, the “Hydrolysis Activity” value in experiment [1] was found to be 2848 cpm; in experiment [2], 12 cpm; in experiment [3] it was 13 cpm.

Take decanoyl-ACP [10:0-ACP]: the “Hydrolysis Activity” value in experiment [1] is 787 cpm; in experiment [2], 0 cpm; in experiment [3], 0 cpm.

Take lauroyl-ACP [12:0-ACP]: the “Hydrolysis Activity” value came to 1028 cpm in experiment [1], 1261 cpm in experiment [2] and 0 cpm in experiment [3].
